Reference: the supplement of paper PMC10307832

Tests used:
Experiment in all cases: relative viability (nuclei count vs DMSO), 5 days (fraction); higher = more cells survive
ABC-1 = system: ABC-1
Method in brief: (§1)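 Lung cancer cell lines in 1536-well plates got either a single drug or a fixed anchor-drug dose together with five library-drug doses (not always all listed) in √10 steps, by pin tool, on the day after seeding. Nuclei were counted after 5 days, and relative viability is the treated-to-vehicle ratio of nuclei counts. Values are medians of duplicate plates.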

NCI-H23 = system: NCI-H23
Method in brief: as §1

NCI-H2009 = system: NCI-H2009
Method in brief: as §1

PC-14 = system: PC-14
Method in brief: as §1

UMC-11 = system: UMC-11
Method in brief: as §1

LCLC-103H = system: LCLC-103H
Method in brief: as §1

SK-MES-1 = system: SK-MES-1
Method in brief: as §1

HCC-827 = system: HCC-827
Method in brief: as §1

NCI-H661 = system: NCI-H661
Method in brief: as §1

LXF-289 = system: LXF-289
Method in brief: as §1

HCC-366 = system: HCC-366
Method in brief: as §1

CCNC(=O)c1noc(-c2cc(C(C)C)c(O)cc2O)c1-c1ccc(CN2CCOCC2)cc1 [Luminespib] + CS(=O)(=O)N1CCN(Cc2cc3nc(-c4cccc5[nH]ncc45)nc(N4CCOCC4)c3s2)CC1 [Pictilisib] (partner 1 µM)
relative viability (ABC-1; first compound 0.002 µM): 0.695
relative viability (ABC-1; first compound 0.006325 µM): 0.693
relative viability (ABC-1; first compound 0.02 µM): 0.407
relative viability (ABC-1; first compound 0.06325 µM): 0.249
relative viability (ABC-1; first compound 0.2 µM): 0.228
relative viability (NCI-H23; first compound 0.002 µM): 0.475
relative viability (NCI-H23; first compound 0.006325 µM): 0.486
relative viability (NCI-H23; first compound 0.02 µM): 0.374
relative viability (NCI-H23; first compound 0.06325 µM): 0.134
relative viability (NCI-H23; first compound 0.2 µM): 0.157
relative viability (NCI-H2009; first compound 0.002 µM): 0.855
relative viability (NCI-H2009; first compound 0.006325 µM): 0.819
relative viability (NCI-H2009; first compound 0.02 µM): 0.583
relative viability (NCI-H2009; first compound 0.06325 µM): 0.0684
relative viability (NCI-H2009; first compound 0.2 µM): 0.0548
relative viability (PC-14; first compound 0.002 µM): 0.698
relative viability (PC-14; first compound 0.006325 µM): 0.588
relative viability (PC-14; first compound 0.02 µM): 0.194
relative viability (PC-14; first compound 0.06325 µM): 0.0484
relative viability (PC-14; first compound 0.2 µM): 0.0383
relative viability (UMC-11; first compound 0.002 µM): 0.43
relative viability (UMC-11; first compound 0.006325 µM): 0.764
relative viability (UMC-11; first compound 0.02 µM): 0.261
relative viability (UMC-11; first compound 0.06325 µM): 0.603
relative viability (UMC-11; first compound 0.2 µM): 0.185
relative viability (LCLC-103H; first compound 0.002 µM): 0.629
relative viability (LCLC-103H; first compound 0.006325 µM): 0.5
relative viability (LCLC-103H; first compound 0.02 µM): 0.466
relative viability (LCLC-103H; first compound 0.06325 µM): 0.651
relative viability (LCLC-103H; first compound 0.2 µM): 0.271
relative viability (SK-MES-1; first compound 0.002 µM): 0.36
relative viability (SK-MES-1; first compound 0.006325 µM): 0.418
relative viability (SK-MES-1; first compound 0.02 µM): 0.271
relative viability (SK-MES-1; first compound 0.06325 µM): 0.114
relative viability (SK-MES-1; first compound 0.2 µM): 0.106
relative viability (HCC-827; first compound 0.002 µM): 0.949
relative viability (HCC-827; first compound 0.006325 µM): 1.02
relative viability (HCC-827; first compound 0.02 µM): 0.802
relative viability (HCC-827; first compound 0.06325 µM): 0.555
relative viability (HCC-827; first compound 0.2 µM): 0.551
relative viability (NCI-H661; first compound 0.002 µM): 0.357
relative viability (NCI-H661; first compound 0.006325 µM): 0.344
relative viability (NCI-H661; first compound 0.02 µM): 0.287
relative viability (NCI-H661; first compound 0.06325 µM): 0.276
relative viability (NCI-H661; first compound 0.2 µM): 0.223
relative viability (LXF-289; first compound 0.002 µM): 0.75
relative viability (LXF-289; first compound 0.006325 µM): 0.809
relative viability (LXF-289; first compound 0.02 µM): 0.714
relative viability (LXF-289; first compound 0.06325 µM): 0.121
relative viability (LXF-289; first compound 0.2 µM): 0.087
relative viability (HCC-366; first compound 0.002 µM): 0.159
relative viability (HCC-366; first compound 0.006325 µM): 0.156
relative viability (HCC-366; first compound 0.02 µM): 0.116
relative viability (HCC-366; first compound 0.06325 µM): 0.0429
relative viability (HCC-366; first compound 0.2 µM): 0.0407
